In assay [1] the test system is aerosol antigen induced bronchial spasms and death. The experiment in a line: prevention of aerosol antigen induced bronchial spasms and death in the guinea pig. It is filed as in vivo. The conditions noted are these: Cavia porcellus, po, orally, read-out: minimal amount required to prevent aerosol antigen induced bronchial spasms and death. An excerpt: The minimal amounts of the compounds of Examples 5 and 9 required to prevent aerosol antigen induced bronchial spasms and death in the guinea pig are respectively 4.0 and 8.0 milligrams per kilogram of body weight orally.

The subject of assay [2] is wheals induced by intradermal injections of histamine. The assay is described as follows: reduction of wheals induced by intradermal injections of histamine in guinea pigs. In kind it is in vivo, guinea pig. The conditions noted are these: Cavia porcellus, po, 1 h, orally administered one hour prior to histamine injection, intradermal injections of 1γ each of histamine, read-out: ED50 (amount required to reduce by 50% wheals induced by intradermal histamine).

The structures appear in SMILES notation. Structures can show the parent of a compound that is named as a salt.

A word on the ED50: it is the dose at which the effect has come halfway, by size or by number of responders. In the case of `Cl.O=C(CCCN1CCC(=C(c2ccccc2)c2ccccc2)CC1)c1cccs1` [Example 5, 4-[4-(Diphenylmethylene)piperidino]-1-(2-thienyl)-1-butanone hydrochloride], in assay [1], the minimal effective dose was determined as 4 mg/kg. For the same compound, the 50% effective dose (ED50) in assay [2] came to 3.1 mg/kg.
Regarding `Fc1ccc(C=CCCN2CCC(C(c3ccccc3)c3ccccc3)CC2)cc1` [Example 2, 4-(Diphenylmethyl)-1-[4-(p-fluorophenyl)-3-butenyl]-piperidine hydrochloride hemihydrate], in assay [2], the ED50 worked out at 14.4 mg/kg.
In the case of `CC(C)(C)c1ccc(C(=O)CCCN2CCC(=C(c3ccccc3)c3ccccc3)CC2)cc1.Cl` [Example 9, 4'-tert-Butyl-4-[4-(diphenylmethylene)piperidino]butyrophenone hydrochloride], in assay [1], the minimal effective dose turned out to be 8 mg/kg. In addition, in assay [2], the ED50 came to 4 mg/kg.

Values taken from US4180583A, “Olefinic 4-substituted piperidino derivatives as therapeutics” (Richardson-Merrell Inc., priority 1978, dated 1979).
